Assay results: ChEMBL document CHEMBL1955752, “Synthesis and evaluation of fluorobenzoylated di- and tripeptides as inhibitors of cyclooxygenase-2 (COX-2)” (Bioorg Med Chem, 2012)
Activity calls are given as the source filed them. The rule behind the calls is not given here. Residues, ends and D or L forms follow the SMILES beside them.

Assays:
[1] = target: T1, Prostaglandin G/H synthase 1 (Ovis aries, UniProt P05979); test: Inhibition of ovine COX1 by fluorescence assay
T1 sequence (P05979 whole entry): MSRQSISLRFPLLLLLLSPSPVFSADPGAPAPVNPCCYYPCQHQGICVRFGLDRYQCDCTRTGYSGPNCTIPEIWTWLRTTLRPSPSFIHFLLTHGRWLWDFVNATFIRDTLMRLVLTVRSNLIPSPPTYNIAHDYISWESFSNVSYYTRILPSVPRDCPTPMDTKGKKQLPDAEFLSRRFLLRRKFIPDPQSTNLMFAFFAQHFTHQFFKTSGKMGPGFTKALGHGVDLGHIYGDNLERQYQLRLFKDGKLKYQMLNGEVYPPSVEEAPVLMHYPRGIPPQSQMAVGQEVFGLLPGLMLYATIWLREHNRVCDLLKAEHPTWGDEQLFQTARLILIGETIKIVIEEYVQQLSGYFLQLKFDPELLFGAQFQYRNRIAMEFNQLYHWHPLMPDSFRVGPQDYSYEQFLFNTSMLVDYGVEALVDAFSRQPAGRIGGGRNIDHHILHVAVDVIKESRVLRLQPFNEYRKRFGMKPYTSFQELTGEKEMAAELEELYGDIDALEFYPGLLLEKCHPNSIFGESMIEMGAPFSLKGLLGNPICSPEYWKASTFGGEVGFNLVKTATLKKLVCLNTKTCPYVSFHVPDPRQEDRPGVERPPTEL

[2] = target: T2, Prostaglandin G/H synthase 2 (Homo sapiens, UniProt P35354); test: Inhibition of human recombinant COX2 by fluorescence assay
T2 sequence (P35354 whole entry): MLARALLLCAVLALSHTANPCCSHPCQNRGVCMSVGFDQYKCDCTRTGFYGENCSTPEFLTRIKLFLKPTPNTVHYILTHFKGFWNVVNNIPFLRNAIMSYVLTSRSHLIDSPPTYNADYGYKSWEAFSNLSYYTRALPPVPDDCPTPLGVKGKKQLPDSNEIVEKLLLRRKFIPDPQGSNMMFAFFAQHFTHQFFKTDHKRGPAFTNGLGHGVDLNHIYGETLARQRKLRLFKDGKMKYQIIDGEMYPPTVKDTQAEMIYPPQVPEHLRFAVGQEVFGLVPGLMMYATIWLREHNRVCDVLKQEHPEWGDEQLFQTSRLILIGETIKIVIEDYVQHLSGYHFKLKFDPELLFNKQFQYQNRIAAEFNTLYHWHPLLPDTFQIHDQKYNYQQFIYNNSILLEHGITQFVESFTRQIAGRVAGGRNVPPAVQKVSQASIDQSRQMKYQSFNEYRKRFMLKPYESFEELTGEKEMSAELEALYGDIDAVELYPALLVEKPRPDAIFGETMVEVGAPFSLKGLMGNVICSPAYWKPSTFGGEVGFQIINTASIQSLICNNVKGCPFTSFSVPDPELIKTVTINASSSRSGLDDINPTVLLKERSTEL

[3] = target: T3, Prostaglandin G/H synthase 1 (Ovis aries) (UniProt P05979); test: Inhibition of ovine COX1 at 1 nM to 1 mM by fluorescence assay
T3 sequence (whole entry): T1 sequence (P05979 whole entry)

[4] = target: T4, Prostaglandin G/H synthase 2 (Homo sapiens) (UniProt P35354); test: Inhibition of human recombinant COX2 at 1 nM to 1 mM by fluorescence assay
T4 sequence (whole entry): T2 sequence (P35354 whole entry)

[5] = target: T2, Prostaglandin G/H synthase 2; test: Inhibition of COX2 by ELISA
[6] = target: T2, Prostaglandin G/H synthase 2; test: Binding affinity to COX2 by surface plasmon resonance spectroscopy

Structure (SMILES) | IC50 [1] | IC50 [2] | inhibition [3] | inhibition [4] | IC50 [5] | Kd [6]
O=C(O)C[C@H](NC(=O)[C@H](CS)NC(=O)c1ccc(F)cc1)C(=O)O | 15 µM | 14 µM | – | – | – | –
CSCC[C@H](NC(=O)[C@H](Cc1ccccc1)NC(=O)c1ccc(F)cc1)C(=O)N[C@@H](CC(=O)O)C(=O)O | – | 450 µM | inactive | – | – | –
O=C(N[C@@H](Cc1ccc(O)cc1)C(=O)N[C@@H](Cc1c[nH]c2ccccc12)C(=O)N[C@@H](CO)C(=O)O)c1ccc(F)cc1 | – | 180 µM | inactive | – | – | –
O=C(N[C@@H](Cc1ccccc1)C(=O)N[C@@H](CS)C(=O)N[C@@H](CO)C(=O)O)c1ccc(F)cc1 | 27 µM | 13 µM | – | – | – | –
O=C(O)C[C@H](NC(=O)[C@H](Cc1ccc(O)cc1)NC(=O)[C@H](Cc1c[nH]c2ccccc12)NC(=O)c1ccc(F)cc1)C(=O)O | – | – | inactive | inactive | – | –
N[C@@H](Cc1c[nH]c2ccccc12)C(=O)N[C@@H](Cc1ccc(O)cc1)C(=O)N[C@@H](CC(=O)O)C(=O)O (H-Trp-Tyr-Asp-OH) | – | 700 µM | inactive | – | – | –
N[C@@H](Cc1c[nH]c2ccccc12)C(=O)N[C@@H](CS)C(=O)N[C@@H](CO)C(=O)O (H-Trp-Cys-Ser-OH) | 6 µM | 21 µM | – | – | 0.015 µM | 0.00019 µM
O=C(N[C@@H](Cc1ccc(O)cc1)C(=O)N[C@@H](CO)C(=O)O)c1ccc(F)cc1 | – | 140 µM | inactive | – | – | –
O=C(N[C@@H](Cc1c[nH]c2ccccc12)C(=O)N[C@@H](CS)C(=O)N[C@@H](CO)C(=O)O)c1ccc(F)cc1 | 140 µM | 85 µM | – | – | – | –
CSCC[C@H](NC(=O)[C@H](Cc1c[nH]c2ccccc12)NC(=O)c1ccc(F)cc1)C(=O)N[C@@H](CC(=O)O)C(=O)O | – | 450 µM | inactive | – | – | –
CSCC[C@H](NC(=O)[C@H](Cc1c[nH]c2ccccc12)NC(=O)c1ccc(F)cc1)C(=O)N[C@@H](CCC(=O)O)C(=O)O | – | 350 µM | inactive | – | – | –
O=C(N[C@@H](CS)C(=O)N[C@@H](CO)C(=O)O)c1ccc(F)cc1 | 5 µM | 15 µM | – | – | – | –

Now from value to molecule:

IC50 [1] | IC50 [2] | inhibition [3] | inhibition [4] | IC50 [5] | Kd [6] | Structure (SMILES)
– | 200 µM | inactive | – | – | – | O=C(N[C@@H](Cc1c[nH]c2ccccc12)C(=O)N[C@@H](CO)C(=O)O)c1ccc(F)cc1
– | > 1000 µM | inactive | – | – | – | CSCC[C@H](NC(=O)[C@H](Cc1ccccc1)NC(=O)c1ccc(F)cc1)C(=O)N[C@@H](CCC(=O)O)C(=O)O
– | 110 µM | inactive | – | – | – | O=C(O)C[C@H](NC(=O)[C@H](Cc1ccc(O)cc1)NC(=O)c1ccc(F)cc1)C(=O)O
– | > 1000 µM | inactive | – | – | – | CSCC[C@H](NC(=O)[C@H](Cc1ccc(O)cc1)NC(=O)c1ccc(F)cc1)C(=O)N[C@@H](CC(=O)O)C(=O)O
– | 500 µM | inactive | – | – | – | CSCC[C@H](NC(=O)[C@H](Cc1ccc(O)cc1)NC(=O)c1ccc(F)cc1)C(=O)N[C@@H](CCC(=O)O)C(=O)O
